From publication PMC8509773, “3-Pyridinylidene Derivatives of Chemically Modified Lupane and Ursane Triterpenes as Promising Anticancer Agents by Targeting Apoptosis” (International Journal of Molecular Sciences, 2021)
Marks after values point to notes of the source that are not given here.

Experiments:
[1] = tested on: NCI-60 cancer cell line panel; assay: NCI-60 cancer cell line panel screening (whole panel / subpanels); format: cell-based; conditions: for Selectivity index (SI): full panel MG_MID / subpanel MG_MID
Description: At first, compounds were tested in a single high dose concentration regimen (10 µM) against a panel of sixty various cancer cell lines; the results of the screening are outlined in Table 1 in the form of percent growth (GP %) of treated cells versus untreated cells used as control, where negative numbers indicate cell kill. The experimental results of growth inhibition may range from 0 to 100 and indicate a cytostatic effect while negative values indicate cell death and thus a cytotoxic activity (for NCI data see Supplementary Material Figures S6–S12).
The selectivity index (SI) was calculated by dividing the full panel MG_MID60 (μM) of tested compounds by their individual subpanel MG_MID of the cell line (μM); it correlates directly to the selectivity of their anticancer activity (Table 3). […] By contrast, despite its strong antiproliferative effect, compound 7 acts with low selectivity against the various human tumor cell lines, the highest SI value being 1.73.
Compounds 1, 2, and 4–8 were tested at one dose assay (10^−5 M) toward a panel of approximately sixty cancer cell lines representing different cancer types: leukemia, melanoma, lung, colon, CNS, ovarian, renal, prostate, and breast cancers. Primary anticancer assays were performed according to the NCI protocol as described elsewhere (see, e.g., http://dtp.nci.nih.gov accessed on 16 October 2019). The compounds were added at a single concentration and the cell cultures were incubated for 48 h. The end point determinations were made with a protein binding dye, sulforhodamine B (SRB). The results for each compound are reported as the percent growth (GP %) of treated cells compared to untreated control cells (negative numbers indicate cell kill). Compounds with considerable activity against all tested human tumor cell lines (6 and 7) were selected for the advanced assay against a panel of approximately sixty tumor cell lines at 10-fold dilutions of five concentrations (100 µM, 10 µM, 1 µM, 0.1 µM, and 0.01 µM). The percentage of growth was evaluated spectrophotometrically versus controls not treated with test agents after 48-h exposure and using SRB protein assay to estimate cell viability or growth. Three antitumor activity dose–response parameters were calculated for each cell line: GI50—molar concentration of the compound that inhibits 50% net cell growth; TGI—molar concentration of the compound leading to the total inhibition; and LC50—molar concentration of the compound leading to 50% net cell death (presented in negative logarithm). Furthermore, mean graph midpoints (MG_MID) were calculated for each of the parameters, giving an average activity parameter over all cell lines for the tested compound. For the MG_MID calculation, insensitive cell lines were included with the highest concentration tested.

Bcl-2 gene = assay: rtPCR gene expression in Sk-Mel-28 cells; format: cell-based, human
Bcl-XL gene = assay: rtPCR gene expression in Sk-Mel-28 cells; format: cell-based, human
From the text: (§1) We applied rtPCR techniques in order to investigate the effect of our two compounds on the anti-apoptotic Bcl-XL and Bcl-2 genes as well as the proapoptotic Bak and Bad genes (Table 4). […] Therefore, we may presume that the apoptotic mechanism of both compounds against the A375 cells is not mediated by the tested genes or that alterations in their ratio are the underlying mechanism.

Bak gene = assay: rtPCR gene expression in Sk-Mel-28 cells; format: cell-based, human
From the text: as §1

T-47D = assay: NCI-60 SRB screening (one-dose and five-dose); format: cell-based, human; conditions: 48 h; for Growth Percent: T-47D, 10 μM
How it was run: (§2)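 After a 48-h incubation with compound, cellular protein was stained with SRB and growth estimated by spectrophotometry relative to untreated controls.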

SNB-19 = assay: NCI-60 SRB screening (one-dose and five-dose); format: cell-based, human; conditions: 48 h; for Growth Percent: SNB-19, 10 μM
How it was run: (§3)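 Spectrophotometric SRB end point; 48-h drug exposure; percent of untreated-control growth reported.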

ACHN = assay: NCI-60 SRB screening (one-dose and five-dose); format: cell-based, human; conditions: 48 h; for Growth Percent: 10 μM
How it was run: as §3

HS 578T = assay: NCI-60 SRB screening (one-dose and five-dose); format: cell-based, human; conditions: 48 h; for Growth Percent: 10 μM
How it was run: as §2

MDA-MB-435 = assay: NCI-60 SRB screening (one-dose and five-dose); format: cell-based, human; conditions: 48 h; for Growth Percent: MDA-MB-435, 10 μM
How it was run: as §3

RPMI-8226 = assay: NCI-60 SRB screening (one-dose and five-dose); format: cell-based, human; conditions: 48 h; for Growth Percent: RPMI-8226, 10 μM
How it was run: as §3

SNB-75 = assay: NCI-60 SRB screening (one-dose and five-dose); format: cell-based, human; conditions: 48 h; for Growth Percent: SNB-75, 10 μM
How it was run: as §2

OVCAR-3 = assay: NCI-60 SRB screening (one-dose and five-dose); format: cell-based, human; conditions: 48 h; for Growth Percent: OVCAR-3, 10 μM
How it was run: as §3

NCI-H522 = assay: NCI-60 SRB screening (one-dose and five-dose); format: cell-based, human; conditions: 48 h; for Growth Percent: NCI-H522, 10 μM
How it was run: (§4)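 Growth inhibition is scored with sulforhodamine B after 48 h of continuous compound exposure. An MG_MID averages each parameter over the whole cell panel, insensitive lines being counted at the top tested concentration.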

HCT-116 = assay: NCI-60 SRB screening (one-dose and five-dose); format: cell-based, human; conditions: 48 h; for Growth Percent: HCT-116, 10 μM
How it was run: as §3

M14 = assay: NCI-60 SRB screening (one-dose and five-dose); format: cell-based, human; conditions: 48 h; for Growth Percent: M14, 10 μM
How it was run: as §4

A549/ATCC = assay: NCI-60 SRB screening (one-dose and five-dose); format: cell-based, human; conditions: 48 h; for Growth Percent: 10 μM
How it was run: as §3

SF-295 = assay: NCI-60 SRB screening (one-dose and five-dose); format: cell-based, human; conditions: 48 h; for Growth Percent: SF-295, 10 μM
How it was run: as §3

UO-31 = assay: NCI-60 SRB screening (one-dose and five-dose); format: cell-based, human; conditions: 48 h; for Growth Percent: UO-31, 10 μM
How it was run: as §3

HCT-15 = assay: NCI-60 SRB screening (one-dose and five-dose); format: cell-based, human; conditions: 48 h; for Growth Percent: HCT-15, 10 μM
How it was run: as §3

OVCAR-8 = assay: NCI-60 SRB screening (one-dose and five-dose); format: cell-based, human; conditions: 48 h; for Growth Percent: OVCAR-8, 10 μM
How it was run: as §2

UACC-257 = assay: NCI-60 SRB screening (one-dose and five-dose); format: cell-based, human; conditions: 48 h; for Growth Percent: UACC-257, 10 μM
How it was run: as §3

U251 = assay: NCI-60 SRB screening (one-dose and five-dose); format: cell-based, human; conditions: 48 h; for Growth Percent: U251, 10 μM
How it was run: as §4

MALME-3M = assay: NCI-60 SRB screening (one-dose and five-dose); format: cell-based, human; conditions: 48 h; for Growth Percent: 10 μM
How it was run: as §3

SK-MEL-28 = assay: NCI-60 SRB screening (one-dose and five-dose); format: cell-based, human; conditions: 48 h; for Growth Percent: SK-MEL-28, 10 μM
How it was run: as §2

[2] = Homo sapiens, five dose 0.01–100 μM

SMILES: C[C@H]1[C@@H]2[C@H]3CC[C@@H]4[C@@]5(C)C/C(=C\c6cccnc6)C(=O)C(C)(C)[C@@H]5CC[C@@]4(C)[C@]3(C)CC[C@]23CO[C@@]1(C)[C@@H](C(=O)/C=C/c1cccnc1)C3 [Compound 6, 3-Oxo-2-(3-pyridinylidene)-21-[3-(2E-pyridinyl)-prop-2-en-1-one]-20β,28-epoxy-18α,19βH-ursane]
- Selectivity index (SI) ([1]; Breast Cancer subpanel): 0.96
- Selectivity index (SI) ([1]; CNS Cancer subpanel): 0.96
- Selectivity index (SI) ([1]; Colon Cancer subpanel): 1.10
- GI50 ([1]; Homo sapiens, five-dose testing, all cell lines, read-out: GI50 values, range over the NCI-60 panel): 30 to 5900 nM
- Selectivity index (SI) ([1]; Leukemia subpanel): 5.30
- Selectivity index (SI) ([1]; Melanoma subpanel): 1.01
- Selectivity index (SI) ([1]; Non-Small Cell Lung Cancer subpanel): 0.87
- Selectivity index (SI) ([1]; Ovarian Cancer subpanel): 0.57
- Selectivity index (SI) ([1]; Prostate Cancer subpanel): 1.86
- Selectivity index (SI) ([1]; Renal Cancer subpanel): 1.01
- Bcl-2 gene expression, Mean (Bcl-2 gene): 0.200 *
- Bcl-XL gene expression, Mean (Bcl-XL gene): 1.606
- Bak gene expression, Mean (Bak gene): 22.826 ***
- GI50 (T-47D; Homo sapiens, T47D, T -47D, five dose 0.01–100 μM): 1980 nM
- Growth Percent (T-47D): 24.61%
- GI50 (SNB-19; Homo sapiens, SNB-19, five dose 0.01–100 μM): 850 nM
- Growth Percent (SNB-19): 2.48%
- Growth Percent (ACHN): −22.16%
- GI50 (ACHN; [2]): 1410 nM
- Growth Percent (HS 578T): 11.24%
- GI50 (HS 578T; [2]): 1440 nM
- GI50 (MDA-MB-435; Homo sapiens, MDA-MB-435, MDA-B-435, five dose 0.01–100 μM): 1090 nM
- Growth Percent (MDA-MB-435): −7.30%
- GI50 (RPMI-8226; Homo sapiens, RPMI-8226, five dose 0.01–100 μM): 160 nM
- Growth Percent (RPMI-8226): 5.06%
- GI50 (SNB-75; Homo sapiens, SNB-75, five dose 0.01–100 μM): 1020 nM
- Growth Percent (SNB-75): 32.69%
- GI50 (OVCAR-3; Homo sapiens, OVCAR-3, five dose 0.01–100 μM): 880 nM
- Growth Percent (OVCAR-3): −43.66%
- GI50 (NCI-H522; Homo sapiens, NCI-H522, five dose 0.01–100 μM): 1360 nM
- Growth Percent (NCI-H522): −34.35%
- Growth Percent (HCT-116): −45.63%
- GI50 (HCT-116; Homo sapiens, HCT-116, five dose 0.01–100 μM): 230 nM
- GI50 (M14; Homo sapiens, M14, five dose 0.01–100 μM): 1740 nM
- Growth Percent (M14): −20.11%
- Growth Percent (A549/ATCC): −24.64%
- GI50 (A549/ATCC; [2]): 1270 nM
- GI50 (SF-295; Homo sapiens, SF-295, five dose 0.01–100 μM): 1690 nM
- Growth Percent (SF-295): 6.07%
- GI50 (UO-31; Homo sapiens, UO-31, five dose 0.01–100 μM): 640 nM
- Growth Percent (UO-31): −97.34%
- Growth Percent (HCT-15): −15.30%
- GI50 (HCT-15; Homo sapiens, HCT-15, five dose 0.01–100 μM): 1110 nM
- GI50 (OVCAR-8; Homo sapiens, OVCAR-8, five dose 0.01–100 μM): 1600 nM
- Growth Percent (OVCAR-8): −13.55%
- GI50 (UACC-257; Homo sapiens, UACC-257, five dose 0.01–100 μM): 1670 nM
- Growth Percent (UACC-257): 13.16%
- GI50 (U251; Homo sapiens, U-251, U251, five dose 0.01–100 μM): 1040 nM
- Growth Percent (U251): −68.02%
- Growth Percent (MALME-3M): −33.54%
- GI50 (MALME-3M; [2]): 800 nM
- GI50 (SK-MEL-28; Homo sapiens, SK-MEL-28, five dose 0.01–100 μM): 940 nM
- Growth Percent (SK-MEL-28): −17.77%

SMILES: CC(=O)O[C@H]1CC[C@]2(C)[C@H]3CC[C@@H]4[C@H]5[C@H](C)[C@@]6(C)OC[C@]5(CC[C@@]4(C)[C@]3(C)CC[C@H]2C1(C)C)CC6C(C)=O (some centres unmarked) [Compound 1]
- Antiproliferative / cytotoxic activity in words ([1]; single dose 10 µM): completely lacks activity
- Growth Percent (T-47D): 74.66%
- Growth Percent (SNB-19): 88.73%
- Growth Percent (ACHN): 86.11%
- Growth Percent (HS 578T): 98.58%
- Growth Percent (MDA-MB-435): 83.22%
- Growth Percent (RPMI-8226): 47.53%
- Growth Percent (SNB-75): 106.15%
- Growth Percent (OVCAR-3): 84.02%
- Growth Percent (NCI-H522): 75.59%
- Growth Percent (HCT-116): 41.92%
- Growth Percent (M14): 74.76%
- Growth Percent (A549/ATCC): 88.63%
- Growth Percent (SF-295): 96.73%
- Growth Percent (UO-31): 95.19%
- Growth Percent (HCT-15): 38.30%
- Growth Percent (OVCAR-8): 92.52%
- Growth Percent (UACC-257): 84.73%
- Growth Percent (U251): 77.27%
- Growth Percent (MALME-3M): 81.27%
- Growth Percent (SK-MEL-28): 80.73%
